{"source": "paper PMC6353796", "about": "“Thermostable Branched-Chain Amino Acid Transaminases From the Archaea Geoglobus acetivorans and Archaeoglobus fulgidus: Biochemical and Structural Characterization” (Frontiers in Bioengineering and Biotechnology, 2019)", "assay_type_in_all_cases": "binding", "key": {"GEO1900 [1]": {"molecular_target": "T1, GEO1900 (Geoglobus acetivorans, UniProt A0A0A7GJ30)", "T1 construct": "gene ilvE; mainly homodimer in solution, hexamer in crystal; catalytic Lys152", "T1 sequence (A0A0A7GJ30 entry or part of it)": "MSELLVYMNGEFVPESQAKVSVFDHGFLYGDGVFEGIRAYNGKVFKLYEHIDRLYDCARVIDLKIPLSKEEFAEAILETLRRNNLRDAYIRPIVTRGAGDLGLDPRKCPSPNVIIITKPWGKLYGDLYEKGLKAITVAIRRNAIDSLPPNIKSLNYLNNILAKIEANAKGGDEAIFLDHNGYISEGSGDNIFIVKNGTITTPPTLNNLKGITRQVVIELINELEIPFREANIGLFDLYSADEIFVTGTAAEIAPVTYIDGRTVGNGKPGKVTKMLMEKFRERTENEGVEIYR", "assay": "X-ray crystal structure, […] Å", "conditions": "covalent internal aldimine with Lys152"}, "AF0933 [2]": {"molecular_target": "T2, AF0933 (Archaeoglobus fulgidus, UniProt O29329)", "T2 construct": "gene ilvE; His-tagged (pLATE51, E. coli Rosetta (DE3)-pLysS); homohexamer in solution; catalytic Lys150", "T2 sequence (O29329 1-290)": "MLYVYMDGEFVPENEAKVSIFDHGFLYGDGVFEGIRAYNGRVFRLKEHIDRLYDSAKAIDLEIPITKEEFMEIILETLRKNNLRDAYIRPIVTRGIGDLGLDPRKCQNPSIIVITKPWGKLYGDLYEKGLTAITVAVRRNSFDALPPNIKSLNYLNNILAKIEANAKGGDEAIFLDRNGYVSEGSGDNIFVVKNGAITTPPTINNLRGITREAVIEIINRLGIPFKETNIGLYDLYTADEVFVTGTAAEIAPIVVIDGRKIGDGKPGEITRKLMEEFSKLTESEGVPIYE", "assay": "X-ray crystal structure, […] Å", "conditions": "covalent internal aldimine with Lys150"}, "GEO1900 [3]": {"molecular_target": "T1, GEO1900", "assay": "X-ray crystal structure, […] Å, soak", "conditions": "50 mM AKG soak; unproductive complex with holoenzyme; active site of subunit A only"}, "AF0933 [4]": {"molecular_target": "T2, AF0933", "assay": "X-ray crystal structure, […] Å, co-crystallization", "conditions": "5 mM gabaculine; covalent adduct with PLP, irreversible; partial occupancy, absent in subunit F"}}}
{"smiles": "Cc1ncc(COP(=O)(O)O)c(C=O)c1O", "note": "[pyridoxal 5′-phosphate]", "values": [{"measurement": "X-ray crystal structure, 1.9 Å", "setting": "GEO1900 [1]", "value": "A PLP molecule is covalently bound to the catalytic Lys152 in the GEO1900 active site"}, {"measurement": "X-ray crystal structure, 2.1 Å", "setting": "AF0933 [2]", "value": "A PLP molecule is covalently bound to the catalytic Lys152 in the GEO1900 active site (Lys150"}]}
{"smiles": "O=C(O)CCC(=O)C(=O)O", "note": "[α-ketoglutarate]", "values": [{"measurement": "X-ray crystal structure, 2.2 Å, soak", "setting": "GEO1900 [3]", "value": "GEO1900 complexed with AKG 5E25"}]}
{"smiles": "N[C@@H]1C=CC=C(C(=O)O)C1", "note": "[gabaculine]", "values": [{"measurement": "X-ray crystal structure, 2.0 Å, co-crystallization", "setting": "AF0933 [4]", "value": "AF0933 complexed with gabaculine 5MR0"}]}
